Patent publication US10508113B2, “Inhibitors of tyrosine kinase 2 mediated signaling” (AbbVie Inc., priority 2018, dated 2019)

Biological target: T1, Jak2 (Homo sapiens, UniProt O60674)
T1 construct: Cell Type: UT7 cells engineered to express the erythropoietin (EPO) receptor; endogenous in cells; host or cells: UT7 cells engineered to express the EPO receptor
Experiment: Jak2 (PSTATS UT7) alpha screen assay: inhibition of EPO induced phosphorylation of STAT5 in UT7 cells
Format: cell-based
Details: for EC50: EPO induced pSTAT5, UT7 cells; for Tyk2 selectivity over Jak2: calculated from tabulated EC50 data (Jak2 / Tyk2)
In short: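 EPO-receptor-expressing UT7 cells, starved overnight of EPO, preincubated 30 min at 37 °C with compound (8-point 1:3, top 25 µM final), then stimulated with 1 nM EPO for 20 min. After lysis, pSTAT5 (Tyr694/699) measured by SureFire AlphaScreen; EC50 from dose-response of percent activity.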

T1 sequence (O60674 whole entry): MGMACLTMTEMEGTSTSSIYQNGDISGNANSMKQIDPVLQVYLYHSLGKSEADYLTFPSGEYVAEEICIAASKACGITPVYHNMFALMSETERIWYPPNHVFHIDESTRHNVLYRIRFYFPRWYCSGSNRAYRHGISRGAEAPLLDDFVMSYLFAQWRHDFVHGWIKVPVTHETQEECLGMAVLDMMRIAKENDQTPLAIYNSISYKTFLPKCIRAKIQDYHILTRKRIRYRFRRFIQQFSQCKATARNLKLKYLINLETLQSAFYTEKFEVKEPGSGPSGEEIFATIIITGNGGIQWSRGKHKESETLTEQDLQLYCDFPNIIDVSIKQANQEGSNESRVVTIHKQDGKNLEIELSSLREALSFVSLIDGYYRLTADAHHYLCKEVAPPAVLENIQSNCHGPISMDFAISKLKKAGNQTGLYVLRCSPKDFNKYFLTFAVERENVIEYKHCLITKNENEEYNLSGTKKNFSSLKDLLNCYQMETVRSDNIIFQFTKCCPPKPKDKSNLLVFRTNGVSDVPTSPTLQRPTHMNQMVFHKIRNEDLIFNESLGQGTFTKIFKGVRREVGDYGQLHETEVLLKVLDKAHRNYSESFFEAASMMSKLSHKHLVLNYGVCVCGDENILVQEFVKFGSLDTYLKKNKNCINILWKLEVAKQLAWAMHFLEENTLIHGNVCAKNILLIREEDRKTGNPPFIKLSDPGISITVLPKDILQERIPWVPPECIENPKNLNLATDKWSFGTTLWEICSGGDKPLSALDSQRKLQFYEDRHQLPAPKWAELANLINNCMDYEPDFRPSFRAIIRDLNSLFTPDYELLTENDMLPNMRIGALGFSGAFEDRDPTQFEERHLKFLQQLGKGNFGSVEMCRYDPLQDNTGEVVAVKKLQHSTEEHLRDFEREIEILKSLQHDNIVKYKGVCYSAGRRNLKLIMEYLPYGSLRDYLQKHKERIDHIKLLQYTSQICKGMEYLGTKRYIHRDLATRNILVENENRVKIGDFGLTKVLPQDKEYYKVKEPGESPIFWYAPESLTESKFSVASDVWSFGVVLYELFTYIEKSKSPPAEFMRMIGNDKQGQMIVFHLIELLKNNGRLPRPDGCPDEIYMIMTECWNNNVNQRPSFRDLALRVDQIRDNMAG

Row | EC50 | Tyk2 selectivity over Jak2 | SMILES
1 | > 25 µM | >170-fold | COCc1cc(-c2cn(C)c3cnc(NC(C)=O)cc23)nc([C@]2([C@H](C)O)CCOC2)c1 [Example 22.3, N-(3-(6-((R)-3-((S)-1-hydroxyethyl)tetrahydrofuran-3-yl)-4-(methoxymethyl)pyridin-2-yl)-1-methyl-1H-pyrrolo[2,3-c]pyridin-5-yl)acetamide]
2 | > 25 µM | >223-fold | COCc1cc(-c2cn(C)c3cnc(NC(C)=O)cc23)nc([C@]2([C@@H](C)O)CCOC2)c1 [Example 22.4, N-(3-(6-((R)-3-((R)-1-hydroxyethyl)tetrahydrofuran-3-yl)-4-(methoxymethyl)pyridin-2-yl)-1-methyl-1H-pyrrolo[2,3-c]pyridin-5-yl)acetamide]
